Test results published in patent US20100311714A1, “1H-IMIDAZO[4,5-c]QUINOLINONE COMPOUNDS” (priority 2009, published 2010).

Test system: PKB Ser473 phosphorylation in Rat1-myr-HA-p110 delta cells
Assay: Reverse protein array, PKB Ser473 phosphorylation in Rat1-myr-HA-p110 delta cells
Type: cell-based
Details: Rattus norvegicus, 0.5 h, 30 minutes compound incubation, read-out: p-PKB/IC50_delta

Row | Structure (SMILES) | IC50 [nM]
1 | COc1ccc(-n2c(=O)n(C)c3cnc4ccc(-c5cnc(C(OC)OC)c(OC)c5)cc4c32)c(OC)n1 [Example 8.13, 8-(6-Dimethoxymethyl-5-methoxy-pyridin-3-yl)-1-(2,6-dimethoxy-pyridin-3-yl)-3-methyl-1,3-dihydro-imidazo[4,5-c]quinolin-2-one] | 599
2 | Cc1nc(N2CCC(O)C2)ccc1-n1c(=O)n(C)c2cnc3ccc(-c4cnc(N)c(C(F)(F)F)c4)cc3c21 (stereo not shown) [Example 27.3, 8-(6-Amino-5-trifluoromethyl-pyridin-3-yl)-1-[6-(3-hydroxy-pyrrolidin-1-yl)-2-methyl-pyridin-3-yl]-3-methyl-1,3-dihydro-imidazo[4,5-c]quinolin-2-one] | 8.9
3 | Cc1ncccc1-n1c(=O)n(C)c2cnc3ccc(-c4cnc5[nH]ccc5c4)cc3c21 [Example 2.8, 3-Methyl-1-(2-methyl-pyridin-3-yl)-8-(1H-pyrrolo[2,3-b]pyridin-5-yl)-1,3-dihydro-imidazo[4,5-c]quinolin-2-one] | 13.8
4 | COCc1ncc(-c2ccc3ncc4c(c3c2)n(-c2ccc(F)nc2C)c(=O)n4C)cc1OC [Example 7.7, 1-(6-Fluoro-2-methyl-pyridin-3-yl)-8-(5-methoxy-6-methoxymethyl-pyridin-3-yl)-3-methyl-1,3-dihydro-imidazo[4,5-c]quinolin-2-one] | 598
5 | CNc1ncc(-c2ccc3ncc4c(c3c2)n(-c2ccc(N3CCC(OC)C3)nc2C)c(=O)n4C)cn1 (stereo not shown) [Example 28.2, 1-[6-(3-Methoxy-pyrrolidin-1-yl)-2-methyl-pyridin-3-yl]-3-methyl-8-(2-methylamino-pyrimidin-5-yl)-1,3-dihydro-imidazo[4,5-c]quinolin-2-one] | 22.9
6 | COCc1ncc(-c2ccc3ncc4c(c3c2)n(-c2cccnc2C)c(=O)n4C)cc1OC [Example 2.30, 8-(5-Methoxy-6-methoxymethyl-pyridin-3-yl)-3-methyl-1-(2-methyl-pyridin-3-yl)-1,3-dihydro-imidazo[4,5-c]quinolin-2-one] | 336
7 | Cc1nc(N2CCC(O)C2)ccc1-n1c(=O)n(C)c2cnc3ccc(-c4cncc(C(C)(C)O)c4)cc3c21 (stereo not shown) [Example 27.5, 8-[5-(1-Hydroxy-1-methyl-ethyl)-pyridin-3-yl]-1-[6-(3-hydroxy-pyrrolidin-1-yl)-2-methyl-pyridin-3-yl]-3-methyl-1,3-dihydro-imidazo[4,5-c]quinolin-2-one] | 309
8 | COc1ccc(-n2c(=O)n(C)c3cnc4ccc(-c5cnc(CO)c(OC)c5)cc4c32)c(OC)n1 [Example 8.14, 1-(2,6-Dimethoxy-pyridin-3-yl)-8-(6-hydroxymethyl-5-methoxy-pyridin-3-yl)-3-methyl-1,3-dihydro-imidazo[4,5-c]quinolin-2-one] | 186
9 | Cn1c(=O)n(-c2cccnc2F)c2c3cc(-c4cnc5[nH]ccc5c4)ccc3ncc21 [Example 6.3, 1-(2-Fluoro-pyridin-3-yl)-3-methyl-8-(1H-pyrrolo[2,3-b]pyridin-5-yl)-1,3-dihydro-imidazo[4,5-c]quinolin-2-one] | 43.2
10 | Cc1nc(F)ccc1-n1c(=O)n(C)c2cnc3ccc(-c4cncc(N5CCC5)c4)cc3c21 [Example 7.6, 8-(5-Azetidin-1-yl-pyridin-3-yl)-1-(6-fluoro-2-methyl-pyridin-3-yl)-3-methyl-1,3-dihydro-imidazo[4,5-c]quinolin-2-one] | 119
11 | Cc1nc(N2CC(O)C2)ccc1-n1c(=O)n(C)c2cnc3ccc(-c4cncc(C(C)(C)O)c4)cc3c21 [Example 29.1, 1-[6-(3-Hydroxy-azetidin-1-yl)-2-methyl-pyridin-3-yl]-8-[5-(1-hydroxy-1-methyl-ethyl)-pyridin-3-yl]-3-methyl-1,3-dihydro-imidazo[4,5-c]quinolin-2-one] | 350
12 | COc1ccc(-n2c(=O)n(C)c3cnc4ccc(-c5cncc(N6CCC6)c5)cc4c32)c(OC)n1 [Example 8.11, 8-(5-Azetidin-1-yl-pyridin-3-yl)-1-(2,6-dimethoxy-pyridin-3-yl)-3-methyl-1,3-dihydro-imidazo[4,5-c]quinolin-2-one] | 93.1
13 | CNC(=O)c1ccc(-c2ccc3ncc4c(c3c2)n(-c2cccnc2C)c(=O)n4C)cc1 [Example 2.4, N-Methyl-4-[3-methyl-1-(2-methyl-pyridin-3-yl)-2-oxo-2,3-dihydro-1H-imidazo[4,5-c]quinolin-8-yl]-benzamide] | 29.1

The next lines start with the values.

Row | IC50 [nM] | Structure (SMILES)
14 | 38.1 | CCOc1ccc(-c2ccc3ncc4c(c3c2)n(-c2ccc(N3CCC(O)C3)nc2C)c(=O)n4C)cn1 (stereo not shown) [Example 27.4, 8-(6-Ethoxy-pyridin-3-yl)-1-[6-(3-hydroxy-pyrrolidin-1-yl)-2-methyl-pyridin-3-yl]-3-methyl-1,3-dihydro-imidazo[4,5-c]quinolin-2-one]
15 | 88.5 | COc1cc(-c2ccc3ncc4c(c3c2)n(-c2ccc(N3CC(F)(F)C3)nc2C)c(=O)n4C)cnc1CO [Example 24.4, 1-[6-(3,3-Difluoro-azetidin-1-yl)-2-methyl-pyridin-3-yl]-8-(6-hydroxymethyl-5-methoxy-pyridin-3-yl)-3-methyl-1,3-dihydro-imidazo[4,5-c]quinolin-2-one]
16 | 58.1 | COc1cc(-c2ccc3ncc4c(c3c2)n(-c2ccc(N3CCCC3)nc2C)c(=O)n4C)cnc1CO [Example 25.4, 8-(6-Hydroxymethyl-5-methoxy-pyridin-3-yl)-3-methyl-1-(2-methyl-6-pyrrolidin-1-yl-pyridin-3-yl)-1,3-dihydro-imidazo[4,5-c]quinolin-2-one]
17 | 121 | COc1cc(-c2ccc3ncc4c(c3c2)n(-c2ccc(N3CCC(OC)C3)nc2C)c(=O)n4C)cnc1CO (stereo not shown) [Example 28.3, 8-(6-Hydroxymethyl-5-methoxy-pyridin-3-yl)-1-[6-(3-methoxy-pyrrolidin-1-yl)-2-methyl-pyridin-3-yl]-3-methyl-1,3-dihydro-imidazo[4,5-c]quinolin-2-one]
18 | 42 | CNc1ncc(-c2ccc3ncc4c(c3c2)n(-c2ccc(N3CC[C@@H](O)C3)nc2C)c(=O)n4C)cn1 [Example 34.1, 1-[6-((R)-3-Hydroxy-pyrrolidin-1-yl)-2-methyl-pyridin-3-yl]-3-methyl-8-(2-methylamino-pyrimidin-5-yl)-1,3-dihydro-imidazo[4,5-c]quinolin-2-one]
19 | 16 | CNc1ncc(-c2ccc3ncc4c(c3c2)n(-c2ccc(N3CC[C@H](O)C3)nc2C)c(=O)n4C)cc1Cl [Example 32.4, 8-(5-Chloro-6-methylamino-pyridin-3-yl)-1-[6-((S)-3-hydroxy-pyrrolidin-1-yl)-2-methyl-pyridin-3-yl]-3-methyl-1,3-dihydro-imidazo[4,5-c]quinolin-2-one]
20 | 715 | COc1cc(-c2ccc3ncc4c(c3c2)n(-c2ccc(N)nc2C)c(=O)n4C)cnc1CO [Example 30.1, 1-(6-Amino-2-methyl-pyridin-3-yl)-8-(6-hydroxymethyl-5-methoxy-pyridin-3-yl)-3-methyl-1,3-dihydro-imidazo[4,5-c]quinolin-2-one]
21 | 12.8 | CCNc1cc(-c2ccc3ncc4c(c3c2)n(-c2ccc(N(C)CCO)nc2C)c(=O)n4C)cnc1CO [Example 26.3, 8-(5-Ethylamino-6-hydroxymethyl-pyridin-3-yl)-1-{6-[(2-hydroxy-ethyl)-methyl-amino]-2-methyl-pyridin-3-yl}-3-methyl-1,3-dihydro-imidazo[4,5-c]quinolin-2-one]
22 | 178 | COc1cc(-c2ccc3ncc4c(c3c2)n(-c2ccc(N3CC[C@H](O)C3)nc2C)c(=O)n4C)cnc1CO [Example 32.7, 8-(6-Hydroxymethyl-5-methoxy-pyridin-3-yl)-1-[6-((S)-3-hydroxy-pyrrolidin-1-yl)-2-methyl-pyridin-3-yl]-3-methyl-1,3-dihydro-imidazo[4,5-c]quinolin-2-one]
23 | 315 | COc1cc(-c2ccc3ncc4c(c3c2)n(-c2ccc(F)nc2C)c(=O)n4C)cnc1CO [Example 7.10, 1-(6-Fluoro-2-methyl-pyridin-3-yl)-8-(6-hydroxymethyl-5-methoxy-pyridin-3-yl)-3-methyl-1,3-dihydro-imidazo[4,5-c]quinolin-2-one]
24 | 7.6 | CCNc1cc(-c2ccc3ncc4c(c3c2)n(-c2ccc(N3CCCC3)nc2C)c(=O)n4C)cnc1CO [Example 25.5, 8-(5-Ethylamino-6-hydroxymethyl-pyridin-3-yl)-3-methyl-1-(2-methyl-6-pyrrolidin-1-yl-pyridin-3-yl)-1,3-dihydro-imidazo[4,5-c]quinolin-2-one]
25 | 16.3 | CCNc1cc(-c2ccc3ncc4c(c3c2)n(-c2ccc(N3CC(F)(F)C(F)(F)C3)nc2C)c(=O)n4C)cnc1CO [Example 35.2, 8-(5-Ethylamino-6-hydroxymethyl-pyridin-3-yl)-3-methyl-1-[2-methyl-6-(3,3,4,4-tetrafluoro-pyrrolidin-1-yl)-pyridin-3-yl]-1,3-dihydro-imidazo[4,5-c]quinolin-2-one]
